This passage reports GI50 and TGI results from PubChem BioAssay (NCI).

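Briefly, cells in 96-well plates were exposed to five compound concentrations for 48 h, and endpoints were estimated by linear interpolation. The concentration for 50% growth inhibition is given as GI50. TGI is the concentration that stops growth completely.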 Bounds are passed on as bounds.

One assay relates to OVCAR-4 ovarian. Kind of assay: NCI anticancer screen, dose series, 48 h.
`CC1(C)CC(=O)c2c(C(F)(F)F)nn(-c3ccc(C(N)=O)c(NC4CCC(OC(=O)CN)CC4)c3)c2C1` (stereo not given): the GI50 was more than 25.1 µM and the TGI is more than 100 µM.

The molecule `CC1=C(C)C(=O)c2c(cc3ccccn23)C1=O` returned a TGI of more than 100 µM.

On to `Cc1ccccc1[P+](Cc1ccccc1)(c1ccccc1)c1ccccc1`, for which the GI50 is 1.91 µM and the TGI is more than 100 µM.

On to `CC1SC2=NC3=C(c4ccccc4C3=O)C(c3ccc(F)cc3)N2C1=O` (stereo not given), for which the TGI was more than 100 µM.

For `CCCCCCCCN=C(N)c1ccc(N2CCN(c3ccc(C(N)=NCCCCCCCC)cc3)CC2)cc1`, the GI50 is 2.35 µM and the TGI worked out at 14.9 µM.

The molecule `NNC(=O)/C(=C/c1ccc(Cl)cc1Cl)NC(=O)c1ccccc1` registered a TGI of more than 100 µM.

As for `CC1C=C(OC(=O)c2ccccc2)C(=O)C(n2cc(F)c(=O)[nH]c2=O)O1` (stereo not given), the TGI was more than 100 µM.

As to `COc1cc(OC(C)=O)cc2c(OC(C)=O)ccc(OC(C)=O)c12`, the TGI was more than 100 µM.

`CCc1ccccc1NC(=O)C(=O)CC(=O)c1sc(Nc2ccccc2)nc1C` had a TGI of more than 100 µM.

Consider `O=c1cc(-c2ccccc2)[nH]c2ccccc12`, for which the GI50 is 0.949 µM and the TGI is more than 100 µM.

The molecule `CCN(CC)c1ccc(C(=O)c2ccccc2C(=O)O)c(O)c1` yielded a TGI of more than 100 µM.

As to `COc1cc2c(c(OC)c1)C1c3ccccc3NC(=O)N1CC2` (stereo not given), the GI50 was 8.24 µM and the TGI was more than 100 µM.

For the molecule `CC(CCC(=O)O)[C@H]1CCC2[C@@H]3CC[C@@H]4CC(O)CC[C@]4(C)C3CC[C@@]21C` (stereo not given in full), the GI50 was 31.4 µM and the TGI was more than 100 µM.

Turning to `Cc1ccc(NC(=O)C(=O)C(C#N)c2ccccc2C)cc1C` (stereo not given), the TGI is more than 100 µM.

For the next assay, the system named is EKVX NSCLC. Briefly: NCI anticancer screen, dose series, 48 h.
Regarding `CC1=C(C)C(=O)c2c(cc3ccccn23)C1=O`, the TGI was found to be 46.4 µM.

`CC1SC2=NC3=C(c4ccccc4C3=O)C(c3ccc(F)cc3)N2C1=O` (stereo not given) registered a TGI of more than 100 µM.

For the molecule `CCCCCCCCN=C(N)c1ccc(N2CCN(c3ccc(C(N)=NCCCCCCCC)cc3)CC2)cc1`, the GI50 is 1.55 µM and the TGI worked out at 8.75 µM.

Regarding `NNC(=O)/C(=C/c1ccc(Cl)cc1Cl)NC(=O)c1ccccc1`, the TGI was more than 100 µM.

Molecule `CC1C=C(OC(=O)c2ccccc2)C(=O)C(n2cc(F)c(=O)[nH]c2=O)O1` (stereo not given) displayed a TGI of more than 100 µM.

The molecule `COc1cc(OC(C)=O)cc2c(OC(C)=O)ccc(OC(C)=O)c12` gave a TGI of more than 100 µM.

With `CCc1ccccc1NC(=O)C(=O)CC(=O)c1sc(Nc2ccccc2)nc1C`, the TGI was more than 100 µM.

In the case of `O=c1cc(-c2ccccc2)[nH]c2ccccc12`, the GI50 was 8.95 µM and the TGI was more than 100 µM.

Consider `CCN(CC)c1ccc(C(=O)c2ccccc2C(=O)O)c(O)c1`, for which the TGI is more than 100 µM.

Take `COc1cc2c(c(OC)c1)C1c3ccccc3NC(=O)N1CC2` (stereo not given): the GI50 is 4.79 µM and the TGI was more than 100 µM.

As for `CC(CCC(=O)O)[C@H]1CCC2[C@@H]3CC[C@@H]4CC(O)CC[C@]4(C)C3CC[C@@]21C` (stereo not given in full), the GI50 was 44.4 µM and the TGI is more than 100 µM.

Turning to `Cc1ccc(NC(=O)C(=O)C(C#N)c2ccccc2C)cc1C` (stereo not given), the TGI is more than 100 µM.

The subject of the next assay is SW-620 colon. Kind of assay: NCI anticancer screen, dose series, 48 h.
On to `COc1ccc(/C=C2\CCCC3=C2N=C2SC(C)=NN2C3c2ccc(OC)c(OC)c2)cc1OC` (stereo not given), for which the GI50 was 6.79 µM and the TGI was 53.8 µM.

As for `CC(C)c1cc(-c2n[nH]c(=O)n2-c2ccc3c(ccn3C)c2)c(O)cc1O`, the GI50 was less than 0.013 µM and the TGI was 24.5 µM.

As to `Cc1cc(N(CCCl)CCCl)ccc1C=Nc1ccc(-c2csc(Cc3ccccc3)n2)cc1`, the GI50 is 18.1 µM and the TGI is more than 100 µM.

With `NCCOCCOCCNc1nc(Cc2ccccc2)nc(NCCCN2CCCC2=O)n1`, the GI50 is more than 100 µM and the TGI was more than 100 µM.

With `COc1ccc(-c2c3c(N)nc(-c4ccncc4)nc3nc3c2c(C)nn3-c2ccccc2)cc1`, the GI50 is 4.36 µM and the TGI is more than 100 µM.

For the molecule `COc1ccc(-c2nc3sc4c(c3c(=O)[nH]2)CCCCCC4)cc1`, the GI50 is 1.81 µM and the TGI was more than 33.2 µM.

As for `CC1(C)CC(=O)c2c(C(F)(F)F)nn(-c3ccc(C(N)=O)c(NC4CCC(OC(=O)CN)CC4)c3)c2C1` (stereo not given), the GI50 is 0.038 µM and the TGI was more than 100 µM.

In turn, `CC1=C(C)C(=O)c2c(cc3ccccn23)C1=O` registered a TGI of 35.5 µM.

Turning to `Cc1ccccc1[P+](Cc1ccccc1)(c1ccccc1)c1ccccc1`, the GI50 is 2.62 µM and the TGI turned out to be 33.3 µM.

For the molecule `CC1SC2=NC3=C(c4ccccc4C3=O)C(c3ccc(F)cc3)N2C1=O` (stereo not given), the TGI is more than 100 µM.

`CCCCCCCCN=C(N)c1ccc(N2CCN(c3ccc(C(N)=NCCCCCCCC)cc3)CC2)cc1`: the GI50 is 1.76 µM and the TGI worked out at 16.8 µM.

On to `NNC(=O)/C(=C/c1ccc(Cl)cc1Cl)NC(=O)c1ccccc1`, for which the TGI is more than 100 µM.

Take `CC1C=C(OC(=O)c2ccccc2)C(=O)C(n2cc(F)c(=O)[nH]c2=O)O1` (stereo not given): the TGI was more than 100 µM.

As to `COc1cc(OC(C)=O)cc2c(OC(C)=O)ccc(OC(C)=O)c12`, the TGI is more than 100 µM.

Turning to `CCc1ccccc1NC(=O)C(=O)CC(=O)c1sc(Nc2ccccc2)nc1C`, the TGI is more than 100 µM.

For `O=c1cc(-c2ccccc2)[nH]c2ccccc12`, the GI50 is 0.379 µM and the TGI was more than 100 µM.

Turning to `CCN(CC)c1ccc(C(=O)c2ccccc2C(=O)O)c(O)c1`, the TGI was more than 100 µM.

On to `COc1cc2c(c(OC)c1)C1c3ccccc3NC(=O)N1CC2` (stereo not given), for which the GI50 is 4.68 µM and the TGI was more than 100 µM.

For the molecule `CC(CCC(=O)O)[C@H]1CCC2[C@@H]3CC[C@@H]4CC(O)CC[C@]4(C)C3CC[C@@]21C` (stereo not given in full), the GI50 was 42.4 µM and the TGI was more than 100 µM.

`Cc1ccc(NC(=O)C(=O)C(C#N)c2ccccc2C)cc1C` (stereo not given) came in with a TGI of more than 61.3 µM.

In another assay the test system is OVCAR-3 ovarian. Kind of assay: NCI anticancer screen, dose series, 48 h.
For the molecule `COc1ccc(/C=C2\CCCC3=C2N=C2SC(C)=NN2C3c2ccc(OC)c(OC)c2)cc1OC` (stereo not given), the GI50 is 4.62 µM and the TGI is 74.9 µM.
